Data reported in US9708368B2, “Linear peptide antibiotics” (priority 2012, dated 2017).
Values after ≈ are worked out from the molar mass of the structure shown. Square brackets hold non-standard residues; d marks the D form. Peptide text beside a SMILES is read from it. * marks the point of attachment. boroAla((+)-pinanediol) = C[C@H](N*)B1O[C@@H]2C[C@@H]3C[C@@H](C3(C)C)[C@]2(C)O1; Biphenylcarbonyl(4'-Bu) = CCCCc1ccc(-c2ccc(C(=O)*)cc2)cc1; X1 = C[C@H](N*)B1OC2C[C@@H]3C[C@@H](C3(C)C)[C@]2(C)O1; Benzoyl(4-octyl) = CCCCCCCCc1ccc(C(=O)*)cc1; X16 = CC(C)(C)c1ccc(-c2ccc(C(=O)*)cc2)cc1; X17 = O=C(/C=C/C=C/C12CC3CC(CC(C3)C1)C2)*; X19 = O=C(CCCCC12CC3CC(CC(C3)C1)C2)*; NMeY = CN[C@@H](Cc1ccc(O)cc1)C(=O)O; NMeT = CN[C@H](C(=O)O)[C@@H](C)O; NMeE = CN[C@@H](CCC(=O)O)C(=O)O; NMeK = CN[C@@H](CCCCN)C(=O)O; NMeV = CN[C@H](C(=O)O)C(C)C; boroAla = C[C@H](N*)B(O)O; Dab = NCC[C@H](N)C(=O)O; βAla = NCCC(=O)O

How the values were obtained:
[1] = test system: Escherichia coli strain MC4100 IMP-4213, which harbors an LptD mutation; conditions: Method B; E. coli MC4100 IMP-4213 (LptD mutation); 35° C., 22 hours
How it was run: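 Two-fold serial dilutions of compound inoculated at final OD600 0.0005, incubated static at 35 °C for 22 h, and growth read visually.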

[2] = test system: methicillin resistant Staphylococcus aureus (MRSA) strain USA300 (NRS384); conditions: Method B, 35° C., 22 hours
E. coli SPase = E. coli SPase (Escherichia coli, UniProt P00803); assay: Biochemical SPase activity assay (fluorogenic peptide substrate), E. coli enzyme
E. coli SPase, sequence (P00803 whole entry): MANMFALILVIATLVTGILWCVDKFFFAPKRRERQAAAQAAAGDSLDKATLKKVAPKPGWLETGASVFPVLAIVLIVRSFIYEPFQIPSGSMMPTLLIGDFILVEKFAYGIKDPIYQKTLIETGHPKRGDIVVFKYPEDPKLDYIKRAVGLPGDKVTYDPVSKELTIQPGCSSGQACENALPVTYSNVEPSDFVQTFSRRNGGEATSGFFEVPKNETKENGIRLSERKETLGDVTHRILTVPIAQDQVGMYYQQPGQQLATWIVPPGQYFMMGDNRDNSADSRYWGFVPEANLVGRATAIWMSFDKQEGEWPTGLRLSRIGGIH

S. aureus SPase = S. aureus SPase (Staphylococcus aureus, UniProt P0A070); assay: biochemical
S. aureus SPase, sequence (P0A070 whole entry): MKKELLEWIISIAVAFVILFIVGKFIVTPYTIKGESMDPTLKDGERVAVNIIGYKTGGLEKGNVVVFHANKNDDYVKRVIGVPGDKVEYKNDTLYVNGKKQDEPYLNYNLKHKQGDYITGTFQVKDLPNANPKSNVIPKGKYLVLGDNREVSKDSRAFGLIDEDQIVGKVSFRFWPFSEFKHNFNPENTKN

| Compound | MIC (μg/mL) E. coli [1] [µg/mL] | MIC (μg/mL) S. aureus [2] [µg/mL] | IC50 (E. coli SPase) [µM] | IC50 (S. aureus SPase) [µM] |
| --- | --- | --- | --- | --- |
| CCCCc1ccc(-c2ccc(C(=O)NCCC(=O)N[C@@H](CCCCN)C(=O)N[C@@H](CCCCN)C(=O)N[C@@H](C)C(=O)N[C@@H](CCCCN)C(=O)N[C@@H](C)B(O)O)cc2)cc1 [Compound 224] ({Biphenylcarbonyl(4'-Bu)-βAla}-KKAK-boroAla) | 2.8 (≈ 3.29 µM) | 0.13 (≈ 0.153 µM) | 0.055 | 0.012 |
| CCCCc1ccc(-c2ccc(C(=O)NCCC(=O)N[C@@H](CCCCN)C(=O)N[C@H](C(=O)N[C@@H](C)C(=O)N[C@@H](Cc3ccc(O)cc3)C(=O)N[C@@H](C)B3OC4C[C@@H]5C[C@@H](C5(C)C)[C@]4(C)O3)[C@@H](C)O)cc2)cc1 (some centres unmarked) [Compound 225] ({Biphenylcarbonyl(4'-Bu)-βAla}-KTAY-X1) | 2 (≈ 2.01 µM) | 0.57 (≈ 0.573 µM) | 0.0071 | 0.004 |
| CCCCc1ccc(-c2ccc(C(=O)N[C@H](CO)C(=O)N[C@H](C)C(=O)NCC(=O)N(C)[C@H](C(=O)N[C@@H](C)C(=O)N[C@@H](CC(N)=O)C(=O)N[C@@H](C)B3OC4C[C@@H]5C[C@@H](C5(C)C)[C@]4(C)O3)[C@@H](C)O)cc2)cc1 (some centres unmarked) [Compound 226] ({Biphenylcarbonyl(4'-Bu)}-[dS][dA]G[NMeT]AN-X1) | 25 (≈ 25.6 µM) | 2.8 (≈ 2.87 µM) | 0.44 | 0.14 |
| CCCCc1ccc(-c2ccc(C(=O)N[C@H](CO)C(=O)N[C@H](C)C(=O)NCC(=O)N(C)[C@@H](Cc3ccc(O)cc3)C(=O)N[C@@H](C)C(=O)N[C@@H](CC(N)=O)C(=O)N[C@@H](C)B3OC4C[C@@H]5C[C@@H](C5(C)C)[C@]4(C)O3)cc2)cc1 (some centres unmarked) [Compound 227] ({Biphenylcarbonyl(4'-Bu)}-[dS][dA]G[NMeY]AN-X1) | 13 (≈ 12.5 µM) | 8 (≈ 7.71 µM) | 0.55 | 0.85 |
| CCCCc1ccc(-c2ccc(C(=O)N[C@H](CO)C(=O)N[C@H](C)C(=O)NCC(=O)N(C)[C@@H](CCCCN)C(=O)N[C@@H](C)C(=O)N[C@@H](CC(N)=O)C(=O)N[C@@H](C)B3OC4C[C@@H]5C[C@@H](C5(C)C)[C@]4(C)O3)cc2)cc1 (some centres unmarked) [Compound 228] ({Biphenylcarbonyl(4'-Bu)}-[dS][dA]G[NMeK]AN-X1) | 2.8 (≈ 2.79 µM) | 5.7 (≈ 5.69 µM) | 0.36 | 0.27 |
| CCCCc1ccc(-c2ccc(C(=O)N[C@H](CO)C(=O)N[C@H](C)C(=O)NCC(=O)N(C)[C@@H](CCC(=O)O)C(=O)N[C@@H](C)C(=O)N[C@@H](CC(N)=O)C(=O)N[C@@H](C)B3OC4C[C@@H]5C[C@@H](C5(C)C)[C@]4(C)O3)cc2)cc1 (some centres unmarked) [Compound 229] ({Biphenylcarbonyl(4'-Bu)}-[dS][dA]G[NMeE]AN-X1) | 32 (≈ 31.9 µM) | 64 (≈ 63.8 µM) | 0.29 | 0.22 |
| CCCCc1ccc(-c2ccc(C(=O)N[C@H](CO)C(=O)N[C@H](C)C(=O)NCC(=O)N(C)[C@H](C(=O)N[C@@H](C)C(=O)N[C@@H](CC(N)=O)C(=O)N[C@@H](C)B3OC4C[C@@H]5C[C@@H](C5(C)C)[C@]4(C)O3)C(C)C)cc2)cc1 (some centres unmarked) [Compound 230] ({Biphenylcarbonyl(4'-Bu)}-[dS][dA]G[NMeV]AN-X1) | 20 (≈ 20.6 µM) | 2 (≈ 2.06 µM) | 0.39 | 0.15 |
| C[C@H](NC(=O)[C@H](CCCCN)NC(=O)[C@H](C)NC(=O)[C@@H](NC(=O)[C@H](CCN)NC(=O)c1ccc(-c2ccc(C(C)(C)C)cc2)cc1)[C@@H](C)O)B1O[C@@H]2C[C@@H]3C[C@@H](C3(C)C)[C@]2(C)O1 [Compound 231] (X16-[Dab]TAK-{boroAla((+)-pinanediol)}) | 0.5 (≈ 0.581 µM) | 0.5 (≈ 0.581 µM) | 0.0045 | 0.095 |
| CCCCCCCCc1ccc(C(=O)N[C@@H](CCN)C(=O)N[C@H](C(=O)N[C@@H](C)C(=O)N[C@@H](CCCCN)C(=O)N[C@@H](C)B2OC3C[C@@H]4C[C@@H](C4(C)C)[C@]3(C)O2)[C@@H](C)O)cc1 (some centres unmarked) [Compound 232] ({Benzoyl(4-octyl)}-[Dab]TAK-X1) | 0.25 (≈ 0.298 µM) | 0.31 (≈ 0.369 µM) | 0.005 | 0.14 |
| CCCCc1ccc(-c2ccc(C(=O)N[C@@H](CCN)C(=O)N[C@H](C(=O)N[C@@H](C)C(=O)N[C@@H](CCCCN)C(=O)N[C@@H](C)B3OC4C[C@@H]5C[C@@H](C5(C)C)[C@]4(C)O3)[C@@H](C)O)nc2)cc1 (some centres unmarked) [Compound 233] | 1 (≈ 1.16 µM) | 0.5 (≈ 0.581 µM) | 0.029 | 0.22 |
| CCCCc1ccc(-c2ccc(C(=O)N[C@@H](CCN)C(=O)N[C@H](C(=O)N[C@@H](C)C(=O)N[C@@H](CCCCN)C(=O)N[C@@H](C)B3OC4C[C@@H]5C[C@@H](C5(C)C)[C@]4(C)O3)[C@@H](C)O)cn2)cc1 (some centres unmarked) [Compound 234] | 0.5 (≈ 0.581 µM) | 0.4 (≈ 0.465 µM) | 0.0083 | 0.053 |
| C[C@H](NC(=O)[C@H](CCCCN)NC(=O)[C@H](C)NC(=O)[C@@H](NC(=O)[C@H](CCN)NC(=O)c1ccc(-c2ccccc2C(F)(F)F)cc1)[C@@H](C)O)B1OC2C[C@@H]3C[C@@H](C3(C)C)[C@]2(C)O1 (some centres unmarked) [Compound 236] | 8 (≈ 9.18 µM) | 2 (≈ 2.29 µM) | 0.028 | 0.13 |
| C[C@H](NC(=O)[C@H](CCCCN)NC(=O)[C@H](C)NC(=O)[C@@H](NC(=O)[C@H](CCN)NC(=O)c1ccc(-c2ccc(C(F)(F)F)cc2)cc1)[C@@H](C)O)B1OC2C[C@@H]3C[C@@H](C3(C)C)[C@]2(C)O1 (some centres unmarked) [Compound 237] | 2 (≈ 2.29 µM) | 0.71 (≈ 0.814 µM) | 0.016 | 0.21 |
| C[C@H](NC(=O)[C@H](CCCCN)NC(=O)[C@H](C)NC(=O)[C@@H](NC(=O)[C@H](CCN)NC(=O)CCCCC12CC3CC(CC(C3)C1)C2)[C@@H](C)O)B1OC2C[C@@H]3C[C@@H](C3(C)C)[C@]2(C)O1 (some centres unmarked) [Compound 239] (X19-[Dab]TAK-X1) | 2 (≈ 2.38 µM) | 0.71 (≈ 0.843 µM) | 0.017 | 0.67 |
| C[C@H](NC(=O)[C@H](CCCCN)NC(=O)[C@H](C)NC(=O)[C@@H](NC(=O)[C@H](CCN)NC(=O)/C=C/C=C/C12CC3CC(CC(C3)C1)C2)[C@@H](C)O)B1O[C@@H]2C[C@@H]3C[C@@H](C3(C)C)[C@]2(C)O1 [Compound 240] (X17-[Dab]TAK-{boroAla((+)-pinanediol)}) | 4 (≈ 4.77 µM) | 0.71 (≈ 0.847 µM) | 0.028 | 0.088 |
| CCCCc1ccc(-c2ccc(C(=O)N[C@@H](CCN)C(=O)N[C@H](C(=O)N[C@@H](C)C(=O)N[C@@H](CCCCN)C(=O)N[C@@H](C)B3OC4C[C@@H]5C[C@@H](C5(C)C)[C@]4(C)O3)[C@@H](C)O)c(C)c2)cc1 (some centres unmarked) [Compound 241] | 0.18 (≈ 0.206 µM) | 0.25 (≈ 0.286 µM) | 0.0021 | 0.042 |
| CCCCc1ccc(-c2cnc(C(=O)N[C@@H](CCN)C(=O)N[C@H](C(=O)N[C@@H](C)C(=O)N[C@@H](CCCCN)C(=O)N[C@@H](C)B3OC4C[C@@H]5C[C@@H](C5(C)C)[C@]4(C)O3)[C@@H](C)O)nc2)cc1 (some centres unmarked) [Compound 242] | 11 (≈ 12.8 µM) | 1.4 (≈ 1.62 µM) | 0.021 | 0.054 |
